The values that follow come from patent US20250002487A1, “HETEROCYCLIC COMPOUNDS AND USES THEREOF” (Ventus Therapeutics U.S., Inc., priority 2021, published 2025).

Broadly, the pIC50 is −log10 of the IC50, conventionally taken in molar units.

pIC50: −log10 of the molar value.

In the experiment the target is human-cGAS (h-cGAS) (Homo sapiens, UniProt Q8N884). The experiment is described as follows: hcGAS Kinase-Glo Assay. The following applies: 40 nM h-cGAS, 100 μM ATP, 100 μM GTP, 25 nM dsDNA, 3 h incubation, read-out: hcGAS potency IC50. The experiment is classed as biochemical. As to the method:
In some embodiments, the compounds of the instant disclosure may be tested for their human-cGAS (h-cGAS) inhibition activity using the methodology reported in Lama et al., “Development of human cGAS-specific small molecule inhibitors for repression of double stranded DNA (dsDNA)-triggered interferon expression”, Nature Communications 10, Article number: 2261 (2019), incorporated herein by reference. hcGAS Kinase-Glo Assay Compounds were tested for their human-cGAS (h-cGAS) inhibition activity using the methodology reported in Lama et al., “Development of human cGAS-specific small molecule inhibitors for repression of double stranded DNA (dsDNA)-triggered interferon expression”, Nature Communications 10. Article number: 2261 (2019), which is herein incorporated by reference in its entirety, with slight changes to some conditions as shown in Table B. The results of the assays, expressed in IC50 ranges are reported in Table C with the following designations: A represents an IC50 value <0.1 μM; B represents an IC50 value ≥0.1 μM and <0.5 μM; C represents an IC50 value ≥0.5 μM and <1.0 μM; D represents an IC50 value ≥1.0 μM. [table]

Sequence of human-cGAS (h-cGAS) (Q8N884 whole entry): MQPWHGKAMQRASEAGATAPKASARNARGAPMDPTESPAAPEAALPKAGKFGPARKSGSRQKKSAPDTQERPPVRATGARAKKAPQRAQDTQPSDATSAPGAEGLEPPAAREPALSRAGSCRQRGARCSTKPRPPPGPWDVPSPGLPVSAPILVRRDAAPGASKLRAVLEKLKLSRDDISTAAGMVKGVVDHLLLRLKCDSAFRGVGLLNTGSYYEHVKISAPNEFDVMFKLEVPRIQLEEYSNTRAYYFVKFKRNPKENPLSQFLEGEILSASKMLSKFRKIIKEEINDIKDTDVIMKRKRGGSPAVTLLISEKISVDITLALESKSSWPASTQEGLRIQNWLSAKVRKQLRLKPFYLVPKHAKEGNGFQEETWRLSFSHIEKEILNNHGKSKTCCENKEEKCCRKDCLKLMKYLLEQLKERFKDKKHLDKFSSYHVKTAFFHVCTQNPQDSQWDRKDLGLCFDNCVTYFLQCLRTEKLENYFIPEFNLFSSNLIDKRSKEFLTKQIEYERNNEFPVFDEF

For the compound `CSc1nnc(NC(=O)c2onc3cc(F)ccc23)s1` [Compound 222, 6-fluoro-N-[5-(methylsulfanyl)-1,3,4-thiadiazol-2-yl]-2,1-benzoxazole-3-carboxamide], the pIC50 is 6.00 to 6.30.

In the case of `CSc1nnc(NC(=O)c2nnc(N3CCCC3C(=O)O)o2)s1` (centres unmarked) [Compound 111, 1-(5-{[5-(methylsulfanyl)-1,3,4-thiadiazol-2-yl]carbamoyl}-1,3,4-oxadiazol-2-yl)pyrrolidine-2-carboxylic acid], the pIC50 is 6.30 to 7.00.

With `CSc1nnc(NC(=O)c2cc(-c3ccsc3)no2)s1` [Compound 139, N-[5-(methylsulfanyl)-1,3,4-thiadiazol-2-yl]-3-(thiophen-3-yl)-1,2-oxazole-5-carboxamide], the pIC50 was 6.00 to 6.30.

For `O=C(Nc1nnc(-c2ccccc2Cl)s1)c1ccc(O)nn1` [Compound 56, N-(5-(2-chlorophenyl)-1,3,4-thiadiazol-2-yl)-6-hydroxypyridazine-3-carboxamide], the pIC50 was 6.30 to 7.00.

For the compound `CSc1nnc(NC(=O)c2noc(N3CCCC3c3ccccc3)n2)s1` (centres unmarked) [Compound 99, N-(5-(methylthio)-1,3,4-thiadiazol-2-yl)-5-(2-phenylpyrrolidin-1-yl)-1,2,4-oxadiazole-3-carboxamide], the pIC50 is at most 6.00.

On to `CSc1nnc(NC(=O)c2nnc(N3CCCC3c3ccccc3)o2)s1` (centres unmarked) [Compound 123, N-(5-(methylthio)-1,3,4-thiadiazol-2-yl)-5-(2-phenylpyrrolidin-1-yl)-1.3,4-oxadiazole-2-carboxamide], for which the pIC50 was 6.30 to 7.00.

As for `CCc1nnc(NC(=O)c2onc3ccccc23)s1` [Compound 69, N-(5-ethyl-1,3,4-thiadiazol-2-yl)benzo[c]isoxazole-3-carboxamide], the pIC50 was 6.00 to 6.30.

Consider `CSc1nnc(NC(=O)c2nnc(Cc3cccc(Cl)c3)o2)s1` [Compound 44, 5-(3-chlorobenzyl)-N-(5-(methylthio)-1,3,4-thiadiazol-2-yl)-1,3,4-oxadiazole-2-carboxamide], for which the pIC50 was at most 6.00.

As to `CSc1nnc(NC(=O)c2onc3c2ccc2cnccc23)s1` [Compound 273, N-(5-(methylthio)-1,3,4-thiadiazol-2-yl)isoxazolo[3,4-f]isoquinoline-3-carboxamide], the pIC50 is at most 6.00.

As for `CSc1nnc(NC(=O)c2cc(-c3ccc(C)cc3)no2)s1` [Compound 215, 3-(4-methylphenyl)-N-[5-(methylsulfanyl)-1,3,4-thiadiazol-2-yl]-1,2-oxazole-5-carboxamide], the pIC50 was 6.00 to 6.30.

For `CNC(=O)c1ccc2c(C(=O)Nc3nnc(SC)s3)onc2c1` [Compound 193, N6-methyl-N3-(5-(methylthio)-1,3,4-thiadiazol-2-yl)benzo[c]isoxazole-3,6-dicarboxamide], the pIC50 was at most 6.00.

Take `COc1ccc(-c2cc(C(=O)Nc3nnc(SC)s3)oc(=O)c2)cc1` [Compound 252, 4-(4-methoxyphenyl)-N-(5-methylsulfanyl-1,3,4-thiadiazol-2-yl)-6-oxo-pyran-2-carboxamide]: the pIC50 was 6.30 to 7.00.

`O=C(Nc1nnc(-c2ccccc2Cl)s1)c1nnn[nH]1` [Compound 60, N-(5-(2-chlorophenyl)-1,3,4-thiadiazol-2-yl)-1H-tetrazole-5-carboxamide]: the pIC50 was at most 6.00.

Take `CC(=O)Nc1cc(C(=O)Nc2nnc(-c3ccccc3Cl)s2)on1` [Compound 5, 3-acetamido-N-(5-(2-chlorophenyl)-1,3,4-thiadiazol-2-yl)isoxazole-5-carboxamide]: the pIC50 is 6.30 to 7.00.

As to `O=C(Nc1nnc(-c2cn[nH]c2)s1)c1onc2ccccc12` [Compound 145, N-(5-(1H-pyrazol-4-yl)-1,3,4-thiadiazol-2-yl)benzo[c]isoxazole-3-carboxamide], the pIC50 was at most 6.00.

With `CSc1nnc(NC(=O)c2onc3cc(C(=O)N(C)C)ccc23)s1` [Compound 192, N^6,N^6-dimethyl-N^3-(5-(methylthio)-1,3,4-thiadiazol-2-yl)benzo[c]isoxazole-3,6-dicarboxamide], the pIC50 was at most 6.00.

`COC(=O)c1cc(C(=O)Nc2nnc(-c3ccccc3Cl)s2)on1` [Compound 1, Methyl 5-((5-(2-chlorophenyl)-1,3,4-thiadiazol-2-yl)carbamoyl)isoxazole-3-carboxylate]: the pIC50 was 6.30 to 7.00.

For `CSc1nnc(NC(=O)c2nnn(-c3ccccc3)n2)s1` [Compound 66, N-(5-(methylthio)-1,3,4-thiadiazol-2-yl)-2-phenyl-2H-tetrazole-5-carboxamide], the pIC50 was 6.00 to 6.30.

`CSc1nnc(NC(=O)c2cc(-c3ccc(F)cc3)cc(=O)o2)s1` [Compound 239, 4-(4-fluorophenyl)-N-(5-methylsulfanyl-1,3,4-thiadiazol-2-yl)-6-oxo-pyran-2-carboxamide]: the negative logarithm of the IC50 (pIC50) is 6.30 to 7.00.

On to `CSc1nnc(NC(=O)c2cc(-c3cccc(F)c3)cc(=O)o2)s1` [Compound 238, 4-(3-fluorophenyl)-N-(5-methylsulfanyl-1,3,4-thiadiazol-2-yl)-6-oxo-pyran-2-carboxamide], for which the pIC50 is 6.30 to 7.00.

With `CC(C)c1cc(C(=O)Nc2nnc(-c3ccccc3Cl)s2)on1` [Compound 40, N-(5-(2-chlorophenyl)-1,3,4-thiadiazol-2-yl)-3-isopropylisoxazole-5-carboxamide], the pIC50 is 6.30 to 7.00.

In the case of `CSc1nnc(NC(=O)c2cncc(-c3cccs3)c2)s1` [Compound 96, N-(5-(methylthio)-1,3,4-thiadiazol-2-yl)-5-(thiophen-2-yl)-nicotinamide], the pIC50 is 6.00 to 6.30.

For the compound `COc1ccc2c(C(=O)Nc3nnc(SC)s3)onc2c1` [Compound 231, 6-methoxy-N-[5-(methylsulfanyl)-1,3,4-thiadiazol-2-yl]-2,1-benzoxazole-3-carboxamide], the pIC50 is 6.30 to 7.00.

`CSc1nnc(NC(=O)c2nnc(N3CCNC(=O)C3)o2)s1` [Compound 124, N-(5-(methylthio)-1,3,4-thiadiazol-2-yl)-5-(3-oxopiperazin-1-yl)-1,3,4-oxadiazole-2-carboxamide]: the pIC50 is at most 6.00.

In the case of `CSc1nnc(NC(=O)c2cc(-c3ccc4ccncc4c3)cc(=O)o2)s1` [Compound 264, 4-(isoquinolin-7-yl)-N-(5-(methylthio)-1,3,4-thiadiazol-2-yl)-2-oxo-2H-pyran-6-carboxamide], the pIC50 was 6.30 to 7.00.

With `O=C(Nc1nnc(-c2ccccc2Cl)s1)c1cc(C2CCOCC2)no1` [Compound 38, N-(5-(2-chlorophenyl)-1,3,4-thiadiazol-2-yl)-3-(tetrahydro-2H-pyran-4-yl)isoxazole-5-carboxamide], the pIC50 was 6.30 to 7.00.

On to `CSc1nnc(NC(=O)c2cc(=O)c3cccc(O)c3[nH]2)s1` [Compound 199, 8-hydroxy-N-(5-(methylthio)-1,3,4-thiadiazol-2-yl)-4-oxo-1,4-dihydroquinoline-2-carboxamide], for which the pIC50 is at most 6.00.

On to `CSc1nnc(NC(=O)c2nnc(-c3ccccn3)o2)s1` [Compound 106, N-(5-(methylthio)-1,3,4-thiadiazol-2-yl)-5-(pyridin-2-yl)-1,3,4-oxadiazole-2-carboxamide], for which the pIC50 was 6.00 to 6.30.

As for `CCc1cc(C(=O)Nc2nnc(-c3ccccc3Cl)s2)on1` [Compound 33, N-(5-(2-chlorophenyl)-1,3,4-thiadiazol-2-yl)-3-ethylisoxazole-5-carboxamide], the pIC50 is 6.30 to 7.00.
